Values quoted from earlier work in patent publication US20240050514A1, “USE OF COMPOUND, PHARMACEUTICAL COMPOSITION FOR THE TREATMENT OF IMMUNE OR METABOLIC DISORDERS, PHARMACEUTICAL COMPOSITION FOR THE TREATMENT OF ILLNESSES CAUSED BY OR ASSOCIATED WITH VIRUSES” (PROTEIMAX BIOTECNOLOGIA LTDA., priority 2021, published 2024).

How the values were obtained:
[1] = target: ACE (Homo sapiens, UniProt P12821); settings: read-out: inhibition constant Ki
[2] = test system: rats
[3] = in vivo

ACE, sequence (P12821 30-1306, species assumed): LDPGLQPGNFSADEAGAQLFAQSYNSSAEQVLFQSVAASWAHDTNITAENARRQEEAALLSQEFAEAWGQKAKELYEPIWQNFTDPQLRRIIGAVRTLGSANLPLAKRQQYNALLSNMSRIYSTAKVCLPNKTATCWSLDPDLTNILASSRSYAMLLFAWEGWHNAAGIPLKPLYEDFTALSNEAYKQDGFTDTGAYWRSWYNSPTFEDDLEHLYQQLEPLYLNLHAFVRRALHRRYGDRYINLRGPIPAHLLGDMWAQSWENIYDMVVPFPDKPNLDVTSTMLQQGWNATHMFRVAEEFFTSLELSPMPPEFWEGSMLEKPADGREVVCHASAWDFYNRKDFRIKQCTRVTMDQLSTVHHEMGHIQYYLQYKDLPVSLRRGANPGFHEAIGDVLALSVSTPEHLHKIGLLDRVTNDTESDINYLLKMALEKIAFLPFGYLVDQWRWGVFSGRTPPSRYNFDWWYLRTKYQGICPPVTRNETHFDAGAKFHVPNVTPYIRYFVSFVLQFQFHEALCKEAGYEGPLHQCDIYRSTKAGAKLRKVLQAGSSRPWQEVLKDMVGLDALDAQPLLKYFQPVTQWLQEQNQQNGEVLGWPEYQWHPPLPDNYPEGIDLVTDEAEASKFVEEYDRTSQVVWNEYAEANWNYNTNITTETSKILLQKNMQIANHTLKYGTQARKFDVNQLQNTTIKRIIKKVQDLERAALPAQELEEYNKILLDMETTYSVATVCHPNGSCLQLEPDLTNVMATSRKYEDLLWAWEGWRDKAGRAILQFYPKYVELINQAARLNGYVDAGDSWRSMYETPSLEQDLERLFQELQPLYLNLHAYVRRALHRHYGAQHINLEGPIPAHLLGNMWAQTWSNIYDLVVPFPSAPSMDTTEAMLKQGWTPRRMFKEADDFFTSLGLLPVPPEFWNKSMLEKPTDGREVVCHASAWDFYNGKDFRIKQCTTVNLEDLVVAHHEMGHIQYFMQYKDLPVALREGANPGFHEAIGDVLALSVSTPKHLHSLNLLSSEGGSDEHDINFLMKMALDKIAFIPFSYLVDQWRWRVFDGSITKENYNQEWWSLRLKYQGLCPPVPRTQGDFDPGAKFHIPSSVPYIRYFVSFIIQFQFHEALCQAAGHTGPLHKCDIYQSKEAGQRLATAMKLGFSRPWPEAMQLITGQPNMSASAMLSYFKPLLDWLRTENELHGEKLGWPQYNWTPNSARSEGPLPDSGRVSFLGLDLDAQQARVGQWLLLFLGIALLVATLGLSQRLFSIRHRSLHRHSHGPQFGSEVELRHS

In the case of `CC(C)C[C@H](NC(=O)[C@H](Cc1ccccc1)NC(=O)[C@H](CCCCN)NC(=O)[C@H](Cc1ccccc1)NC(=O)[C@H](CC(N)=O)NC(=O)[C@@H](NC(=O)[C@@H]1CCCN1)C(C)C)C(=O)N[C@@H](CO)C(=O)N[C@@H](Cc1cnc[nH]1)C(=O)O` [hemopressin, PVNFKFLSH], the Ki [1] is given as 1870 µM, the “basal levels of monoamine in the prefrontal cortex” value [2] is given as “reduction in the basal levels of monoamine in the prefrontal cortex” and the behavior after administration [2] is given as “induced anxiogenic and depressive behavior”. The “crossing of the blood-brain barrier” value [3] was “does not cross the blood-brain barrier”.
